Reference: ChEMBL document CHEMBL3132769, “Fragment growing to retain or alter the selectivity of anchored kinase hinge-binding fragments” (Medchemcomm, 2014)

Assays:
[1] = biological target: T1, Serine/threonine-protein kinase Sgk2 (Homo sapiens) (UniProt Q9HBY8); test: Inhibition of human full length SGK2 expressed in baculovirus assessed as substrate phosphorylation using fluorescence-labelled peptides as substrate at 0.06 uM after 90 mins by microfluidic peptide phosphorylation assay
T1 sequence (whole entry): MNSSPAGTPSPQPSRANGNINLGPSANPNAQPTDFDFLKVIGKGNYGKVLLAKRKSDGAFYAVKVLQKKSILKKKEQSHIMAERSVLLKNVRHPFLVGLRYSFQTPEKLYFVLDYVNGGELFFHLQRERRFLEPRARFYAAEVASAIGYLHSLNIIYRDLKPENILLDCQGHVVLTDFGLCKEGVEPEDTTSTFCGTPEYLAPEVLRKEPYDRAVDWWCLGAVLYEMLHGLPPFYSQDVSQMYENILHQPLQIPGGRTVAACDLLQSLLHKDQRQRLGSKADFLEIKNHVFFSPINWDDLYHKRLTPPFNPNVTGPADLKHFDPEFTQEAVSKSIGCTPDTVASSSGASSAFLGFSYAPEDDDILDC

[2] = biological target: T2, cGMP-dependent protein kinase 1 (Homo sapiens) (UniProt Q13976); test: Inhibition of human full length PKG-1a expressed in baculovirus assessed as substrate phosphorylation using fluorescence-labelled peptides as substrate at 0.2 uM after 90 mins by microfluidic peptide phosphorylation assay
T2 sequence (whole entry): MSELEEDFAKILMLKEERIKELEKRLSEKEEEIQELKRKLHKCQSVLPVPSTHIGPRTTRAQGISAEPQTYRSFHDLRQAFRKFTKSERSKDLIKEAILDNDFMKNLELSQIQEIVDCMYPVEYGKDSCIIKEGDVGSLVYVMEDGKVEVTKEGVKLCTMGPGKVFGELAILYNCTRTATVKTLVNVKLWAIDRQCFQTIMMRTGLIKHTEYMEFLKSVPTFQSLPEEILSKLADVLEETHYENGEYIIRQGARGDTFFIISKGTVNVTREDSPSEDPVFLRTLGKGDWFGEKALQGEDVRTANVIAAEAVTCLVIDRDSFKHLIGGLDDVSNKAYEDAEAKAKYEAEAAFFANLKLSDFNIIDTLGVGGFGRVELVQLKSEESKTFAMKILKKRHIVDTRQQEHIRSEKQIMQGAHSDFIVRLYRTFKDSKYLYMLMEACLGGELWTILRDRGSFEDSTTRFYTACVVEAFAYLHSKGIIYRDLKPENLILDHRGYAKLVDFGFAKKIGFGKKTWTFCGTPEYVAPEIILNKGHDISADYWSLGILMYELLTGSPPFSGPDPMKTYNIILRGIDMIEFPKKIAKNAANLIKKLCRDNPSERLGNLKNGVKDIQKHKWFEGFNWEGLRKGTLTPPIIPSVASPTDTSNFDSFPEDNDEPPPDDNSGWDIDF

[3] = biological target: Tyrosine-protein kinase Fer (Homo sapiens) (UniProt P16591); test: Inhibition of human FER catalytic domain expressed in baculovirus assessed as substrate phosphorylation using fluorescence-labelled peptides as substrate at […] after 90 mins by microfluidic peptide phosphorylation assay
[4] = system: Tyrosine-protein kinase ABL1 (Homo sapiens), P00519 [T315I]; details: 0.1 uM
[5] = biological target: T3, Serine/threonine-protein kinase D3 (Homo sapiens) (UniProt O94806); test: Inhibition of human full length PKD3 expressed in baculovirus assessed as substrate phosphorylation using fluorescence-labelled peptides as substrate at 9 uM after 90 mins by microfluidic peptide phosphorylation assay
T3 sequence (whole entry): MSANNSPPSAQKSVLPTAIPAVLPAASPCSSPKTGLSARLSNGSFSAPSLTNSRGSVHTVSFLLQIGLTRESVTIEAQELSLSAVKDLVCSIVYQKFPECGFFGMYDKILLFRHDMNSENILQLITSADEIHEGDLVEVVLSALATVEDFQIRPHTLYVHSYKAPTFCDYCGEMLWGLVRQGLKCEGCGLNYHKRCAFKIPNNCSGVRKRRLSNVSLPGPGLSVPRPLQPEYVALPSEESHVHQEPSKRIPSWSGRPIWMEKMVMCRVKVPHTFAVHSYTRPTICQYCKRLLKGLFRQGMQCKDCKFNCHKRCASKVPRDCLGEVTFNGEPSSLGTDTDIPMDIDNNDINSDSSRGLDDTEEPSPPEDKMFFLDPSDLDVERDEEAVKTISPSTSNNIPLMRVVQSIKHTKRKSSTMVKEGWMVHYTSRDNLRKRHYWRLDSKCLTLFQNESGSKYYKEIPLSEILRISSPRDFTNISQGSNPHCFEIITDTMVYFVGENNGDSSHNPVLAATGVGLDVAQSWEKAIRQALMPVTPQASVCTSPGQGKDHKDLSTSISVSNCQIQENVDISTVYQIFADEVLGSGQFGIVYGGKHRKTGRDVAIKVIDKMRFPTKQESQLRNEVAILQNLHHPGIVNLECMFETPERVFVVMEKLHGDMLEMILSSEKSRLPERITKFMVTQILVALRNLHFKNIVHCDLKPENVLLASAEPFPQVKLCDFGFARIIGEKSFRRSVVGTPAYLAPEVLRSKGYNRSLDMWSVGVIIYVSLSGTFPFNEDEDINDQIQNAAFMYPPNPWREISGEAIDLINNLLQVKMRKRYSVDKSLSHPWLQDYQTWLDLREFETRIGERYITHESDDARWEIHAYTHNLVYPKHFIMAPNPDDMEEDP

[6] = biological target: MAP kinase p38 (Homo sapiens) (UniProt O15264+Q15759+Q16539+P53778); test: Inhibition of human full length p38 beta2 expressed in Escherichia coli cell assessed as substrate phosphorylation using fluorescence-labelled peptides as substrate at 95 uM after 90 mins by microfluidic peptide phosphorylation assay
[7] = biological target: T4, Testis-specific serine/threonine-protein kinase 1 (Homo sapiens) (UniProt Q9BXA7); test: Inhibition of human full length TSSK1 expressed in baculovirus assessed as substrate phosphorylation using fluorescence-labelled peptides as substrate at 1000 uM after 90 mins by microfluidic peptide phosphorylation assay
T4 sequence (whole entry): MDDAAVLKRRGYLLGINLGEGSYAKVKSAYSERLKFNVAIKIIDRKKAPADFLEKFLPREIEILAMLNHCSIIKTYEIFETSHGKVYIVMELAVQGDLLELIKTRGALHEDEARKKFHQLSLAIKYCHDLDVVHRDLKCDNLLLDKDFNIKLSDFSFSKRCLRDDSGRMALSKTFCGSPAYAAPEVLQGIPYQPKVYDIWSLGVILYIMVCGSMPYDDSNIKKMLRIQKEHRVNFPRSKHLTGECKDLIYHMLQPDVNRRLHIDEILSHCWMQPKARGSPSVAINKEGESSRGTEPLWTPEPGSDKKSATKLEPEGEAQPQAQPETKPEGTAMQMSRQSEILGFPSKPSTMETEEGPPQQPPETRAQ

Sequence of Tyrosine-protein kinase Fer (Homo sapiens) (P16591 whole entry, looked up, the tested form may be a part): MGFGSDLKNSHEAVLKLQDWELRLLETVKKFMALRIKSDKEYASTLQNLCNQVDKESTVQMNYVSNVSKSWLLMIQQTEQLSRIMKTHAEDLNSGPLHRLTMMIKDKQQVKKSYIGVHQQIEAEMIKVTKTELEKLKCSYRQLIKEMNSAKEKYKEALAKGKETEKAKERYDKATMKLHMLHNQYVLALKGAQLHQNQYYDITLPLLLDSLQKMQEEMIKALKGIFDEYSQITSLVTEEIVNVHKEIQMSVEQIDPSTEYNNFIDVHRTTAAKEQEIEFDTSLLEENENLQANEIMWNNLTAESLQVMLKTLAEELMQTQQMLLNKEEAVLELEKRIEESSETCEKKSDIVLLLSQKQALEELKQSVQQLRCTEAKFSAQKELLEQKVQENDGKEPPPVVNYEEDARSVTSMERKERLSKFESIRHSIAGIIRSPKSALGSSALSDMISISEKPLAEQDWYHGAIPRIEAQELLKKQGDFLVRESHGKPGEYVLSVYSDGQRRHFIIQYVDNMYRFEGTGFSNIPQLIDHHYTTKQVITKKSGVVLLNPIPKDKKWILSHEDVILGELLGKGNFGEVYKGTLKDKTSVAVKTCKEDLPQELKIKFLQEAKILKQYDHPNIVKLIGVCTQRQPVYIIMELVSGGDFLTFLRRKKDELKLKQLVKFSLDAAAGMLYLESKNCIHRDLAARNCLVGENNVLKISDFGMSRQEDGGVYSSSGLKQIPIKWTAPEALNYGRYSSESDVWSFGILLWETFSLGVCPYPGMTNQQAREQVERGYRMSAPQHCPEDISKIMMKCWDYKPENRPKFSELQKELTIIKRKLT
Sequence of MAP kinase p38 (Homo sapiens) (O15264 whole entry, looked up): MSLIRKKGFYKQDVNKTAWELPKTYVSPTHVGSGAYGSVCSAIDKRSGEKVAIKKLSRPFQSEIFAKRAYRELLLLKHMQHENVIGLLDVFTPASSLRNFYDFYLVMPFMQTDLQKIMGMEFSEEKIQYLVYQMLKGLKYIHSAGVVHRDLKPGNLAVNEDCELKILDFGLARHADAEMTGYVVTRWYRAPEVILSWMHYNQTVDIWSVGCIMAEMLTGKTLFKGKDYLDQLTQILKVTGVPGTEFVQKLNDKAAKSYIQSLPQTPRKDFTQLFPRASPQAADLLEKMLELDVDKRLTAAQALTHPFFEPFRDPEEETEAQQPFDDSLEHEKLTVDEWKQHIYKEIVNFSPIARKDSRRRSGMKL
Sequence of MAP kinase p38 (Homo sapiens) (P53778 whole entry, looked up): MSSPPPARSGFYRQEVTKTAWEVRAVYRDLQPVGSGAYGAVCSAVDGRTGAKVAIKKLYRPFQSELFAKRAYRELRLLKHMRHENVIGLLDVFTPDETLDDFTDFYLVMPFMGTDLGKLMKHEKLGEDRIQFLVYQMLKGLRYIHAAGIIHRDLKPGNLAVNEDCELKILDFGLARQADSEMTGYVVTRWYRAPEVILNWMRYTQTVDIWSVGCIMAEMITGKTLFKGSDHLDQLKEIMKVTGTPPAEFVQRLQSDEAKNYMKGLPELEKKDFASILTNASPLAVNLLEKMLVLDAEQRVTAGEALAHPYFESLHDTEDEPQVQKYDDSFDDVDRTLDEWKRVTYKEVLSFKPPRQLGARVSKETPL
Sequence of MAP kinase p38 (Homo sapiens) (Q15759 whole entry, looked up): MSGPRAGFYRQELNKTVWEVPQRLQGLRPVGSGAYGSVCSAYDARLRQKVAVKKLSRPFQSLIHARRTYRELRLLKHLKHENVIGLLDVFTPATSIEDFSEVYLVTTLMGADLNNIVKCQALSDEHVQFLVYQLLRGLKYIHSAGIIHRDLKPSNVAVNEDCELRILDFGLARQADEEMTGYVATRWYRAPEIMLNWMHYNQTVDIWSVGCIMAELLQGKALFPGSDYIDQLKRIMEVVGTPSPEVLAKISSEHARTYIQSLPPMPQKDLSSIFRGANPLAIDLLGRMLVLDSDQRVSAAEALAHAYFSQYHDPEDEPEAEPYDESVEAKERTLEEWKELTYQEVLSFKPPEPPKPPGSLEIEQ
Sequence of MAP kinase p38 (Homo sapiens) (Q16539 whole entry, looked up): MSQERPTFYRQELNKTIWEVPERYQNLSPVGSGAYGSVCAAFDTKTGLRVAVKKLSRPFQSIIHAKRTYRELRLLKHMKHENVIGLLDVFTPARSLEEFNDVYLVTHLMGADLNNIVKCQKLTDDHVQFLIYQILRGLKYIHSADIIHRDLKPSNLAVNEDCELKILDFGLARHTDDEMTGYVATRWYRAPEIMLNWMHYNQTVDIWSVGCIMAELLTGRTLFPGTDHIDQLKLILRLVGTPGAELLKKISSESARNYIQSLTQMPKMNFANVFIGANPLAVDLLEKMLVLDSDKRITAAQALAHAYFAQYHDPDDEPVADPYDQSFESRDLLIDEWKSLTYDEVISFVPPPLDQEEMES

NC1(Cc2ccc(Cl)cc2)CCN(c2ncnc3[nH]ccc23)CC1
inhibition [1]: 9%

Clc1ccc(C2(c3ccc(-c4ncnc5[nH]cnc45)cc3)CCNCC2)cc1
inhibition [2]: 88.5%

COC(=O)c1cnc(Nc2cnc(C#N)cn2)cc1NCC1CCNCC1
inhibition [3]: 1%

C[C@H](CN(C)C)Oc1nc(Nc2cc3cccc(Cl)c3cn2)cnc1C#N
inhibition [4]: 0%

NCC1CN(c2ncnc3[nH]c4cnccc4c23)CCO1 (configuration not stated)
inhibition [5]: 80%

NCCc1ccc(-c2ncnc3[nH]cnc23)cc1
inhibition [6]: 11%

c1cnc2[nH]ccc2c1
inhibition [7]: 52.5%
